The subject of data set [1] is Candida albicans ATCC MYA-2876. Description: Minimum inhibitory concentration (MIC) test against fungi. It counts as cell-based. As to conditions: ≥50% growth inhibition by eye, three independent experiments. The procedure: (§1) To test the minimum inhibitory concentration (MIC) and minimum effective concentration (MEC) of the drug against fungi.
(§2) Experimental strains: Candida parapsilosis ATCC 22019; Candida albicans ATCC MYA-2876; Candida albicans WX-CA009; Candida glabrata ATCC15126; Candida tropicalis ATCC 750;
(§3) Test medium: RPMI1640 (containing 0.165 M MOPS, pH7.0)
(§4) On the day of the experiment, the compound in the bottle was dissolved in 100% DMSO to a stock solution concentration of 6.24 mg/mL. Then, the mixture was 10-fold diluted with DMSO to 0.624 mg/mL for use.
(§5) A 2-fold gradient dilution of the compound solution (0.624 mg/mL) was performed using DMSO on a 96-microwell plate (V-bottom) to obtain 100× working solutions (wells 1 to 11). 624, 312, 156, 78, 39, 20, 10, 5, 2.5, 1.25, 0.625 μg/mL. 100% DMSO was used as a positive control (well 12). This was the compound stock plate.
(§6) Candida parapsilosis ATCC 22019 and Candida albicans ATCC MYA-2876; Candida albicans WX-CA009; Candida glabrata ATCC15126; Candida tropicalis ATCC 750 frozen at −80° C. were streaked on SDA plates and incubated aerobically in a 35±2° C. incubator for 24 hours.
(§7) On the day of the experiment, for strains Candida parapsilosis ATCC 22019, Candida albicans ATCC MYA-2876; Candida albicans WX-CA009; Candida glabrata ATCC15126; Candida tropicalis ATCC 750 and Cryptococcus neoformans H99 ATCC 208821, the plates were taken out and the clones on the plates were picked, suspended in normal saline, and then the turbidity of the fungal suspension was adjusted to OD600=0.2 using a turbidimeter. The fungal suspension contained about 3.0×10^6 CFU/mL. Then the turbidity-adjusted fungal suspension was diluted with a test medium to a concentration of about 3.0×10^3 CFU/mL. This was the inoculum.
(§8) 2 μL of 100× working solution from the compound stock plate (prepared in 3.1) was transferred to a round-bottomed 96-well plate (containing 98 μL of test medium), and then 100 μL of fungus inoculum (prepared in 3.2) was added to each well to obtain a MIC test plate. Therefore, the final test concentrations of the compounds were 6.24, 3.12, 1.56, 0.78, 0.39, 0.20, 0.10, 0.05, 0.025, 0.0125, 0.006 μg/mL. 1% DMSO was used as a growth control.
(§9) For strains Candida parapsilosis ATCC 22019; Candida albicans ATCC MYA-2876; Candida albicans WX-CA009; Candida glabrata ATCC15126; Candida tropicalis ATCC 750, all test plates were incubated aerobically in a 35±2° C. incubator for 24 hours.
(§10) After incubation, according to the criteria in Table 1 below, the test plate was observed by eye or microscope to determine the MIC (g/mL) and MEC (g/mL) of the test compound against yeast and mold.

Data set [2] deals with Candida albicans WX-CA009. Described as above. It counts as cell-based. As to conditions: ≥50% growth inhibition by eye, three independent experiments. The procedure:
as §1, §2, §3, §4, §5, §6, §7, §8, §9, §10

For data set [3], the system named is Candida glabrata ATCC15126. Described as above. It counts as cell-based. As to conditions: Nakaseomyces glabratus, ATCC15126, 24 h, ≥50% growth inhibition by eye, three independent experiments, read-out: MIC. The procedure:
as §1, §2, §3, §4, §5, §6, §7, §8, §9, §10

Data set [4] concerns Candida parapsilosis ATCC 22019. The data set is described as above. It is filed as cell-based. The note with it: Lodderomyces parapsilosis, ATCC22019, 24 h, ≥50% growth inhibition by eye, three independent experiments (1st, 2nd, 3rd time), read-out: MIC. The procedure: as §1, §2, §3, §4, §5, §6, §7, §8, §9, §10
Data set [5] deals with Candida tropicalis ATCC 750. The data set is described as above. It counts as cell-based. The note with it: ≥50% growth inhibition by eye, three independent experiments. The protocol: as §1, §2, §3, §4, §5, §6, §7, §8, §9, §10
In data set [6] the test system is Cryptococcus neoformans H99 ATCC 208821. The data set is described as above. It is filed as cell-based. As to conditions: Cryptococcus neoformans, ATCC208821, 72 h, ≥50% growth inhibition by eye, three independent experiments, read-out: MIC. The procedure: as §1
Cryptococcus neoformans H99 ATCC 208821;
as §3, §4, §5
Cryptococcus neoformans H99 ATCC 208821 frozen at −80° C. was streaked on SDA plates and incubated aerobically in a 35±2° C. incubator for 48 hours.
as §7, §8
For Cryptococcus neoformans H99 ATCC 208821, all test plates were incubated aerobically in a 35±2° C. incubator for 72 hours.
as §10

Data set [7] has as its system Aspergillus flavus ATCC MYA-1004. The data set can be described thus: Minimum effective concentration (MEC) test against fungi. As to conditions: change of hyphae morphology by microscope, 48 hours, three independent experiments. It counts as cell-based. The procedure:
as §1
(§11) Aspergillus fumigatus ATCC-MYA-4609; Aspergillus flavus ATCC MYA-1004
as §3, §4, §5
(§12) Aspergillus fumigatus ATCC-MYA-4609; Aspergillus flavus ATCC MYA-1004 frozen at −80° C. were streaked on SDA plates and incubated aerobically in a 30±2° C. incubator for 6 days.
(§13) For strains Aspergillus fumigatus ATCC MYA-4609; Aspergillus flavus ATCC MYA-1004, after taking out the plate, 3 mL of 0.9% normal saline containing 0.1% Tween20 was added to the plate and the spores were gently collected. The spores were counted with a hemocytometer and the spore suspension was adjusted to about 5×10^6 spores/mL. Then the spore suspension was diluted to 0.8 to 1×10^5 spores/mL with a test medium.
as §8
(§14) For mold strains Aspergillus fumigatus ATCC-MYA-4609 and Aspergillus flavus ATCC MYA-1004, all test plates were incubated aerobically in a 35±° C. incubator for 48 hours.
as §10

In data set [8] the test system is Aspergillus fumigatus ATCC-MYA-4609. The description is as above. It is filed as cell-based. The note with it: change of hyphae morphology by microscope, 48 hours, three independent experiments. The protocol:
as §1, §11, §3, §4, §5, §12, §13, §8, §14, §10

The nature of data set [9]: Mouse pharmacokinetic evaluation, intraperitoneal injection after oral ABT. It is filed as in vivo. As to conditions: ip, female CD-1 mice, 26 mpk, ABT 50 mg/kg orally 2 hours before, plasma. From the text:
Experimental Purpose: Using female CD-1 mice as test animals, LC/MS/MS was used to measure the plasma drug concentration at different times after intraperitoneal injection of the test compound. To study the pharmacokinetic behavior of the test compound in mice and evaluate its pharmacokinetic characteristics. Drug preparation: An appropriate amount of sample was weighed and then prepared into a clear or suspended solution. Administration scheme: Two healthy female CD-1 mice were taken, purchased from Beijing Vital River Laboratory Animal Technology Co., Ltd., and given a normal diet. The drug was administered through intraperitoneal injection. Operational steps: 2 hours before administration, 1-aminobenzotriazole (ABT) was orally administered (50 mg/kg, 5 mg/mL in normal saline), and after animal administration, about 30 μL of blood was collected at 0.083, 0.25, 0.5, 1, 2, 4, 8, and 24 hours, and placed in commercially available anticoagulant tubes pre-added with EDTA-K2. The tubes were centrifuged for 10 minutes to separate the plasma, and the plasma was stored at −60° C. The content of the target compound in the plasma sample was determined by LC/MS/MS method, and the experimental results are shown in Table 3.

Data set [10] has as its system Candida albicans ATCC MYA-2876. The data set can be described thus: Mouse candidemia efficacy model. It counts as in vivo. As to conditions: female CD-1 mice infected with Candida albicans ATCC MYA-2876; 26 mg/kg intraperitoneally once a day for 7 days after 50 mg/kg ABT orally; n=5. The procedure: Experimental animals: female CD-1 mice, 7 weeks old, 27 to 29 g, n=5 or 8;
microbial pathogen: Candida albicans ATCC MYA-2876;
inoculation level and route: 2.0 to 4.0E+05 CFU/mouse, infected by tail vein injection;
treatment: The treatment started at 1 hour after infection. Firstly, ABT was administered orally, and 2 hours later, the test compound was injected intraperitoneally once a day for 7 days in total, with an administration volume of 10 mL/kg.
Observation indicators: Changes in body weight and mortality within 7 days after infection in each group of mice.

The text below walks through data of patent US12492169B2, “Aminopyridine compound and application thereof” (priority 2020, dated 2025).

In brackets after ≈: the same amount, converted by molar mass. Several values for one entry are separate records, joined by “and”; a condition that tells them apart may be missing. Identical values can stand only once. Like-named read-outs stand apart in the source and are kept apart here.

A word on the MIC: it is the lowest concentration that inhibits growth of the organism. One may read the Tmax as the time at which the peak concentration occurs.

On to `Cc1nc(N)ccc1C#CCc1ccc(COc2ccccn2)cc1` [WX006], for which the MIC in data set [1] (Candida albicans, 24 h, read-out: MIC) is 0.025 µg/mL (≈ 0.0759 µM); in data set [1] (24 hours), 0.0125 µg/mL (≈ 0.0379 µM); in [2] (Candida albicans, WXCA009, 24 h, read-out: MIC) it was 0.05 µg/mL (≈ 0.152 µM); in data set [2] (24 hours), 0.025 µg/mL (≈ 0.0759 µM); in data set [3], 0.39 µg/mL (≈ 1.18 µM); in data set [4] it was 0.05 µg/mL (≈ 0.152 µM). In addition, the MIC in data set [5] (Candida tropicalis, ATCC750, 24 h, read-out: MIC) stood at 0.0125 µg/mL (≈ 0.0379 µM); in data set [5] (24 hours), 0.025 µg/mL (≈ 0.0759 µM); in [6] it was 0.78 µg/mL (≈ 2.37 µM). For the same compound, the MEC was 0.39 µg/mL and 0.2 µg/mL in [7]; 0.1 µg/mL and 0.05 µg/mL in [8]. In [9] (read-out: Concentration Integral AUC), the AUC stood at 221 µM·h. Further, in [9] (read-out: Peak Concentration Cmax), the Cmax turned out to be 23 µM. For the same compound, the Tmax in [9] (read-out: Peak Time Tmax) turned out to be 1.5 h. The “protection from death caused by candidemia” value in [10] was “completely protect”.
